The text below walks through data of PMC4756635 (Bioorganic & medicinal chemistry letters, 2016).

The nature of series [1]: Pharmacokinetics and oral bioavailability in C3H mice, plasma levels by LC-MS. The format is in vivo. The note with it: for bioavailability: po, 10 mg/kg; for Plasma drug concentrations at higher PO dose: mice, PO 100 mg/kg in suspension, data not shown.
For the next series, the target named is HIV-1 Nef (Human immunodeficiency virus type 1 group M subtype B, UniProt P03406). Put plainly: SPR direct binding to immobilized recombinant Nef.
For a further series, the system named is HIV-1NL4-3. Put plainly: Nef-dependent HIV-1 replication in U87MG/CD4/CXCR4 cells, p24 Gag ELISA. The format is cell-based. The note with it: 3 μM, 4 days.
[2] abbreviates: C3H, mouse, plasma, iv, 2 mg/kg.

Each structure is given as a SMILES string. Entries after “also recorded” stand apart in the source; their conditions may differ.

A word on the half-life: it is the time needed for the level to fall by half in the phase considered. For orientation: AUC(0-inf) means total exposure, with the tail of the curve extrapolated. Lower therefore signals low exposure. As a reminder, the Cmax is the highest concentration seen after dosing. In general, bioavailability refers to the share of a dose that reaches the circulation, judged against a reference dose that is usually intravenous. Broadly, the AUC(0-t) is exposure summed from dosing to a finite time, without extrapolation to infinity.

In turn, `NC(=S)n1nc(-c2ccc([N+](=O)[O-])cc2)c(/N=N/c2cccc(Cl)c2)c1O` [Compound 1] gave a half-life in series [1] (setting [2]) of more than 2 h.
`NC(=S)n1nc(-c2ccc([N+](=O)[O-])cc2)c(CCc2cccc(Cl)c2)c1O` [Compound 2]: in series [1] (setting [2]), the AUC(0-inf) is 2470 ng·h/mL, the concentration peaked (Cmax) at 11200 ng/mL, the Vd came out at 0.91 L/kg and the clearance amounted to 15.5 mL/min/kg. Also, the half-life in series [1] (setting [2]) is 2.7 h. In series [1] (C3H, mouse, plasma), this molecule gave a bioavailability of 53 to 85%. In series [1], the “Plasma drug concentrations at higher PO dose” value is listed as “proportionally higher plasma drug concentrations”. In addition, on HIV-1 Nef, the “Reduction of binding affinity for Nef relative to B9 parent compound” value is given as 2 fold. Besides, the “Effect on Nef-dependent enhancement of HIV-1 replication” value (from here on “Effect on Nef-dependent enhancement”) in the series with HIV-1NL4-3 was “suppressed Nef-dependent enhancement of HIV-1 replication to the same extent as B9”.
Consider `O=[N+]([O-])c1ccc(-c2n[nH]c(O)c2CCc2cccc(Cl)c2)cc1` [Compound 3], for which, at HIV-1 Nef, the “Nef binding by SPR (in words)” value is listed as “dramatic loss of Nef binding; also recorded: fail to bind to Nef”. Further, in the series with HIV-1NL4-3, the “Effect on Nef-dependent enhancement” value is on record as “no activity”.
In series [1] (setting [2]), `NC(=S)n1nc(-c2ccc([N+](=O)[O-])cc2)c(Cc2cccc(Cl)c2)c1O` [Compound 4] displayed an AUC(0-inf) of 3890 ng·h/mL, an AUC(0-t) of 3770 ng·h/mL, a Cmax of 3880 ng/mL and a Vd of 0.95 L/kg. In series [1] (setting [2]), this molecule had a clearance of 11.2 mL/min/kg. In series [1] (C3H, mouse, plasma), this molecule had a bioavailability of 57 to 100%. In addition, in series [1], the “Plasma drug concentrations at higher PO dose” value was “proportionally higher plasma drug concentrations”. The “Effect on Nef-dependent enhancement” value in the series on HIV-1NL4-3 is “suppressed Nef-dependent enhancement of HIV-1 replication to the same extent as B9”.
On to `O=[N+]([O-])c1ccc(-c2n[nH]c(O)c2Cc2cccc(Cl)c2)cc1` [Compound 5], for which, at HIV-1 Nef, the “Nef binding by SPR (in words)” value is “dramatic loss of Nef binding; also recorded: fail to bind to Nef”. Besides, in the series with HIV-1NL4-3, the “Effect on Nef-dependent enhancement” value is “no activity”.
